# Laboratory results as given in PMC10004634 (PLOS ONE, 2023).
# Like-named read-outs stand apart in the source and are kept apart here.
# Key:
# Assay in all cases: biochemical
# Design in all cases: KINOMEscan scanMAX competition binding, DNA-tagged kinases, qPCR read-out, percent control at 300 nM
# [1] = biological target: T1, TAK1 (Homo sapiens, UniProt O43318)
# T1 construct: gene MAP3K7
# [2] = biological target: T2, LKB1 (Homo sapiens, UniProt Q15831)
# T2 construct: gene STK11
# [3] = biological target: RAF1 (Homo sapiens, UniProt P04049)
# [4] = biological target: PRKCE (Homo sapiens, UniProt Q02156)
# [5] = biological target: BTK (Homo sapiens, UniProt Q06187)
# [6] = biological target: STK36 (Homo sapiens, UniProt Q9NRP7)
# [7] = biological target: T3, PIP5K2B (Homo sapiens, UniProt P78356)
# T3 construct: gene PIP4K2B
# [8] = biological target: T4, DRAK2 (Homo sapiens, UniProt O94768)
# T4 construct: gene STK17B
# [9] = biological target: KIT(L576P) (Homo sapiens, UniProt P10721, L576P)
# [10] = biological target: NLK (Homo sapiens, UniProt Q9UBE8)
# [11] = biological target: SGK3 (Homo sapiens, UniProt Q96BR1)
# [12] = biological target: T5, DCAMKL2 (Homo sapiens, UniProt Q8N568)
# T5 construct: gene DCLK2
# [13] = biological target: GRK7 (Homo sapiens, UniProt Q8WTQ7)
# [14] = biological target: T6, HPK1 (Homo sapiens, UniProt Q92918)
# T6 construct: gene MAP4K1
# [15] = biological target: PIP5K1A (Homo sapiens, UniProt Q99755)
# [16] = biological target: MET(Y1235D) (Homo sapiens, UniProt P08581, Y1235D)
# [17] = biological target: TSSK1B (Homo sapiens, UniProt Q9BXA7)
# [18] = biological target: T7, RSK4(Kin.Dom.1-N-terminal) (Homo sapiens, UniProt Q9UK32)
# T7 construct: gene RPS6KA6; Kin.Dom.1-N-terminal
# [19] = biological target: LCK (Homo sapiens, UniProt P06239)
# [20] = biological target: PIK3CA(H1047L) (Homo sapiens, UniProt P42336, H1047L)
# [21] = biological target: CAMK2B (Homo sapiens, UniProt Q13554)
# [22] = biological target: T8, MST2 (Homo sapiens, UniProt Q13188)
# T8 construct: gene STK3
# [23] = biological target: FLT3(D835H) (Homo sapiens, UniProt P36888, D835H)
# [24] = read-out: Percent control / Acalabrutinib
# [25] = read-out: Percent control / Ibrutinib
# [26] = read-out: Percent control / Tirabrutinib
# [27] = read-out: Percent control / Zanubrutinib
# T1 sequence (O43318 whole entry): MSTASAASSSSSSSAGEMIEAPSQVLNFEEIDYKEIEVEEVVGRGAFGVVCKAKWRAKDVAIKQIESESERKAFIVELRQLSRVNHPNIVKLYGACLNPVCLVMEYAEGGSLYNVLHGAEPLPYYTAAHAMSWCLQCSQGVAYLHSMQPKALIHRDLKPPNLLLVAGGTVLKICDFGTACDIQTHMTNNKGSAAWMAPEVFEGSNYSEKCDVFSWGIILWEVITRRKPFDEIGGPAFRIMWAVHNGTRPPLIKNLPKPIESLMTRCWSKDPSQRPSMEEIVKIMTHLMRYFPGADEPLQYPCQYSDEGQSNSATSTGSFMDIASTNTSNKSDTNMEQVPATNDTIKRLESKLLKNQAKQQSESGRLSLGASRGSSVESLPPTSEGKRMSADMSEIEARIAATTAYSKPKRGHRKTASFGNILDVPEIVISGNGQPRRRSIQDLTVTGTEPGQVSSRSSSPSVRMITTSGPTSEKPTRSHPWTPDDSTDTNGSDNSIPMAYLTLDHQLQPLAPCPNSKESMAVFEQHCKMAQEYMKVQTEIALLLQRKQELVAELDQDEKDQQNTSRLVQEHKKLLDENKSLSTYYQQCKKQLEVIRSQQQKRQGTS
# Sequence of PIK3CA(H1047L) (P42336 whole entry H1047L): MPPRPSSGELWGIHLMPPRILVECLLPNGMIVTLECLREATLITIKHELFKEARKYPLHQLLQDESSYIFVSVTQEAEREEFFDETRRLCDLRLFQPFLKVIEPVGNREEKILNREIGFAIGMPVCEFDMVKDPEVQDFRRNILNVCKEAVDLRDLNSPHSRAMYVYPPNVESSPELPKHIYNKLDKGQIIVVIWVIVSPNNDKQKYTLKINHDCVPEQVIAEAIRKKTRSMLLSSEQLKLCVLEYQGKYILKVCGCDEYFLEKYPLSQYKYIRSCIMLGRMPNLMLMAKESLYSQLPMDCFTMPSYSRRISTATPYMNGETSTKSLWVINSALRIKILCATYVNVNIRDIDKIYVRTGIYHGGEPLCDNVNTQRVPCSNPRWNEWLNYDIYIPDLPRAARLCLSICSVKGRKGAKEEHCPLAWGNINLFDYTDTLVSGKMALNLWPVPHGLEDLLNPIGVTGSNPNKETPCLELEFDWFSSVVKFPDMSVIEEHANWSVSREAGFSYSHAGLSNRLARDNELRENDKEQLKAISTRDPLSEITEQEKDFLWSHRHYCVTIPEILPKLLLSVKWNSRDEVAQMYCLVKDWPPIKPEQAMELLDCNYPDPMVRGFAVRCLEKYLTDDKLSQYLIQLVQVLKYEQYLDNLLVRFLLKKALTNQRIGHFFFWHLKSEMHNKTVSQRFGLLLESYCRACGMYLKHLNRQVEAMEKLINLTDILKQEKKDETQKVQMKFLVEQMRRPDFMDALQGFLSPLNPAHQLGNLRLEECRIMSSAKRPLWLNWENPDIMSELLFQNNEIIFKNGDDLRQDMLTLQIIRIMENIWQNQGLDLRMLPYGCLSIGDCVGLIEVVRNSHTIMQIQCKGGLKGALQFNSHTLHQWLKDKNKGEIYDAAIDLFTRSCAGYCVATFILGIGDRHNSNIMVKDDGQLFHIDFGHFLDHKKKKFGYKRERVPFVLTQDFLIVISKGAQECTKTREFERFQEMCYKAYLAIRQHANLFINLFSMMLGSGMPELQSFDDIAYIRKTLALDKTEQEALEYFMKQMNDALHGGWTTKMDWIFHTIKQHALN
# Sequence of LCK (P06239 whole entry): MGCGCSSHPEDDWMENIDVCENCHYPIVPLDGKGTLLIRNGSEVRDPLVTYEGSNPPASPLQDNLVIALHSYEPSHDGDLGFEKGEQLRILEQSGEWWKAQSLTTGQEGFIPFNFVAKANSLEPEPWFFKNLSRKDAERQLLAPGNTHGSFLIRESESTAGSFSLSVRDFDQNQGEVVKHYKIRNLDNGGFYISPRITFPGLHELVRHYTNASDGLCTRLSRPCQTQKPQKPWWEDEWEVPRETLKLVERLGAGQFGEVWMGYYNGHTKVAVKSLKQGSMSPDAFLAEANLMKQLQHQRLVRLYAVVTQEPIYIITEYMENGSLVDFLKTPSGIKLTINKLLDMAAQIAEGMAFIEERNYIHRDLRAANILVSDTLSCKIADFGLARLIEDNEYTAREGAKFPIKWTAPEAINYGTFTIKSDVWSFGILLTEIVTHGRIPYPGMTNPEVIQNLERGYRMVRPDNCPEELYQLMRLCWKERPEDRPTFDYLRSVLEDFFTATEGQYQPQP
# Sequence of GRK7 (Q8WTQ7 whole entry): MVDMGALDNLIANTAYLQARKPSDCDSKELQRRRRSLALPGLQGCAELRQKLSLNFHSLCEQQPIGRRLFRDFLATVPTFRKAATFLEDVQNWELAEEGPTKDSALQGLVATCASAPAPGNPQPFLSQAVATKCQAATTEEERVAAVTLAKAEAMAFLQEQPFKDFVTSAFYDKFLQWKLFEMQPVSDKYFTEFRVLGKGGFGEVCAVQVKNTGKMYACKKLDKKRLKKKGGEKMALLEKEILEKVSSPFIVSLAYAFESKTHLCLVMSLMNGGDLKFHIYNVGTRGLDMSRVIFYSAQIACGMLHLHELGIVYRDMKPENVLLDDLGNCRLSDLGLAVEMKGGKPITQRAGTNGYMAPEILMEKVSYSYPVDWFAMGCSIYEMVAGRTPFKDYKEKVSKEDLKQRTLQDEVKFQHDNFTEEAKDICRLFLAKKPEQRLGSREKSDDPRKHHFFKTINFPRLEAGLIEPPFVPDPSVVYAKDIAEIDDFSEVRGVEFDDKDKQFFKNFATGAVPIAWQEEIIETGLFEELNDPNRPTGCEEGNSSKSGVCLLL
# T7 sequence (Q9UK32 whole entry): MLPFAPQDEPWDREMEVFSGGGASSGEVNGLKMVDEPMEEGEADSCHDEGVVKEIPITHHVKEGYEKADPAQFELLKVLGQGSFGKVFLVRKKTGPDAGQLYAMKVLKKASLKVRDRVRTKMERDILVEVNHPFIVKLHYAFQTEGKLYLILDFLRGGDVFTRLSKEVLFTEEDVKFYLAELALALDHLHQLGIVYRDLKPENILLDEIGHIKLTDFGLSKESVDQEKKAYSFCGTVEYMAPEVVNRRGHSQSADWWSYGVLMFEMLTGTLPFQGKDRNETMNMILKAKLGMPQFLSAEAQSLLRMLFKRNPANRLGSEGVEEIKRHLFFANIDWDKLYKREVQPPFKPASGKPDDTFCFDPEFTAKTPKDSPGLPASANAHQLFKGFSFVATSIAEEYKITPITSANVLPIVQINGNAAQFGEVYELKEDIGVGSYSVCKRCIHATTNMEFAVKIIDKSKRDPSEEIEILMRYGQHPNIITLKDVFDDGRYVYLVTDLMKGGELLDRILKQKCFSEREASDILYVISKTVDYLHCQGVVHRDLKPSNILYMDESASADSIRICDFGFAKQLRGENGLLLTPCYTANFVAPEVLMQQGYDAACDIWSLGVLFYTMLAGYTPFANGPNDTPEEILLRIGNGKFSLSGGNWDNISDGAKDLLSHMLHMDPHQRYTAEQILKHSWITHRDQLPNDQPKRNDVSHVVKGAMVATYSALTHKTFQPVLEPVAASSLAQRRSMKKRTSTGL
# Sequence of KIT(L576P) (P10721 whole entry L576P): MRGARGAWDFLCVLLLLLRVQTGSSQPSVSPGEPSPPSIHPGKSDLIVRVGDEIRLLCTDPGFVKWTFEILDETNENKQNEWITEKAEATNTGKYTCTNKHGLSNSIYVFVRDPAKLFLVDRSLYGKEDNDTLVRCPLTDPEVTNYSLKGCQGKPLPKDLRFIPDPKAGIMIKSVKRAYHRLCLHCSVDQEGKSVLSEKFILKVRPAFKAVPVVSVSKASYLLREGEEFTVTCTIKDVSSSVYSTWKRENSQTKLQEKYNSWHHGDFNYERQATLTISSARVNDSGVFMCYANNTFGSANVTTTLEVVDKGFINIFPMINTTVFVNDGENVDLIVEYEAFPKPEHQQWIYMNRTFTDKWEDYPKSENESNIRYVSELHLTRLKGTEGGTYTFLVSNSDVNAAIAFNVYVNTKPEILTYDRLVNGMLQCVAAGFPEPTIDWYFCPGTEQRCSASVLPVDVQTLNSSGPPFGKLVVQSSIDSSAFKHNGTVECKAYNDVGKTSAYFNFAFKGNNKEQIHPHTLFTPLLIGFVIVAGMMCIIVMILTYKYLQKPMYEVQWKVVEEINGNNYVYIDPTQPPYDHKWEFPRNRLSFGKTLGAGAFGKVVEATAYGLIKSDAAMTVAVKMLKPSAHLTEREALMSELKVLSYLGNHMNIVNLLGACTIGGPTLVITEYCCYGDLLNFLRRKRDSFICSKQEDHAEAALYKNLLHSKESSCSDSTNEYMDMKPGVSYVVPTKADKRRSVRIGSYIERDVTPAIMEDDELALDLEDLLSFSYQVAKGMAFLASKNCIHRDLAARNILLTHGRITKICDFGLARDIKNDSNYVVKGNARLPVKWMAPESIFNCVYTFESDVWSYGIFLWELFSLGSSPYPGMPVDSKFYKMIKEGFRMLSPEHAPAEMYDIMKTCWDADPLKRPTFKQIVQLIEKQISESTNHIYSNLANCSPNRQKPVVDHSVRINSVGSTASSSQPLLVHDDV
# Sequence of NLK (Q9UBE8 whole entry): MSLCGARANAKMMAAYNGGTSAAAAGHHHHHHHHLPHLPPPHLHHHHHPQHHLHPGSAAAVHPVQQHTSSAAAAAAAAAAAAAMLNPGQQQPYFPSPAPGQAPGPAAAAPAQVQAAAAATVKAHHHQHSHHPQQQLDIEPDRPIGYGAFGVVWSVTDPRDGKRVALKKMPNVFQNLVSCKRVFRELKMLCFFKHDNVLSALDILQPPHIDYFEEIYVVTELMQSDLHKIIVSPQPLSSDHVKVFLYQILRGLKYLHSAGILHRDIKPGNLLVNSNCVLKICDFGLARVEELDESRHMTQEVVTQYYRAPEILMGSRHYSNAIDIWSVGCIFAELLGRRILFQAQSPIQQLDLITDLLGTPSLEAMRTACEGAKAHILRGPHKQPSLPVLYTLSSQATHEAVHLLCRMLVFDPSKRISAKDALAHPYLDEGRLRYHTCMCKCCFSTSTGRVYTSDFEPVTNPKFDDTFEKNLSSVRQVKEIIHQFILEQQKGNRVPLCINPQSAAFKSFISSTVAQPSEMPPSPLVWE
smiles,measurement,setting,value
CC#CC(=O)N1CCC[C@H]1c1nc(-c2ccc(C(=O)Nc3ccccn3)cc2)c2c(N)nccn12 [Acalabrutinib],remaining binding at 0.3 µM,[1]; [24],86%
same,remaining binding at 0.3 µM,[2]; [24],94%
same,remaining binding at 0.3 µM,[3]; [24],75%
same,remaining binding at 0.3 µM,[4]; [24],96%
same,remaining binding at 0.3 µM,[5]; [24],0.3%
same,remaining binding at 0.3 µM,[6]; [24],90%
same,remaining binding at 0.3 µM,[7]; [24],93%
same,remaining binding at 0.3 µM,[8]; [24],97%
same,remaining binding at 0.3 µM,[9]; [24],86%
same,remaining binding at 0.3 µM,[10]; [24],78%
same,remaining binding at 0.3 µM,[11]; [24],94%
same,remaining binding at 0.3 µM,[12]; [24],90%
same,remaining binding at 0.3 µM,[13]; [24],74%
same,remaining binding at 0.3 µM,[14]; [24],93%
same,remaining binding at 0.3 µM,[15]; [24],83%
same,remaining binding at 0.3 µM,[16]; [24],86%
same,remaining binding at 0.3 µM,[17]; [24],93%
same,remaining binding at 0.3 µM,[18]; [24],82%
same,remaining binding at 0.3 µM,[19]; [24],83%
same,remaining binding at 0.3 µM,[20]; [24],90%
C=CC(=O)N1CCC[C@@H](n2nc(-c3ccc(Oc4ccccc4)cc3)c3c(N)ncnc32)C1 [Ibrutinib],remaining binding at 0.3 µM,[6]; [25],71%
same,remaining binding at 0.3 µM,[8]; [25],82%
same,remaining binding at 0.3 µM,[9]; [25],72%
same,remaining binding at 0.3 µM,[21]; [25],90%
same,remaining binding at 0.3 µM,[22]; [25],85%
same,remaining binding at 0.3 µM,[23]; [25],25%
CC#CC(=O)N1CC[C@@H](n2c(=O)n(-c3ccc(Oc4ccccc4)cc3)c3c(N)ncnc32)C1 [Tirabrutinib],remaining binding at 0.3 µM,[5]; [26],3%
same,remaining binding at 0.3 µM,[23]; [26],95%
same,remaining binding at 0.3 µM,[19]; [26],49%
C=CC(=O)N1CCC([C@@H]2CCNc3c(C(N)=O)c(-c4ccc(Oc5ccccc5)cc4)nn32)CC1 [Zanubrutinib],remaining binding at 0.3 µM,[1]; [27],83%
same,remaining binding at 0.3 µM,[2]; [27],84%
same,remaining binding at 0.3 µM,[3]; [27],88%
same,remaining binding at 0.3 µM,[4]; [27],100%
same,remaining binding at 0.3 µM,[7]; [27],88%
same,remaining binding at 0.3 µM,[10]; [27],80%
same,remaining binding at 0.3 µM,[21]; [27],68%
same,remaining binding at 0.3 µM,[11]; [27],74%
same,remaining binding at 0.3 µM,[12]; [27],91%
same,remaining binding at 0.3 µM,[22]; [27],100%
same,remaining binding at 0.3 µM,[13]; [27],100%
same,remaining binding at 0.3 µM,[14]; [27],100%
same,remaining binding at 0.3 µM,[15]; [27],92%
same,remaining binding at 0.3 µM,[16]; [27],88%
same,remaining binding at 0.3 µM,[17]; [27],100%
same,remaining binding at 0.3 µM,[18]; [27],100%
same,remaining binding at 0.3 µM,[20]; [27],100%
